Laboratory results from patent US8846694B2, “Pyrrolidone derivatives for use as MetAP-2 inhibitors” (Merck Patent GmbH, priority 2008, dated 2014).
Converted amounts (≈) assume the structure as drawn. Blank lines part the entries; values can stand above or below the compound they belong to.

What was measured:
MetAP-2 = MetAP-2 (Homo sapiens, UniProt P50579); assay: MetAP-2 activity measurement (coupled enzymatic reactions, substrate Met-Arg-Ser, photometric at 450 nm); assay type: biochemical; settings: read-out: IC50 enzyme (Inhibition of MetAP-2)
Sequence of MetAP-2 (P50579 whole entry, species assumed): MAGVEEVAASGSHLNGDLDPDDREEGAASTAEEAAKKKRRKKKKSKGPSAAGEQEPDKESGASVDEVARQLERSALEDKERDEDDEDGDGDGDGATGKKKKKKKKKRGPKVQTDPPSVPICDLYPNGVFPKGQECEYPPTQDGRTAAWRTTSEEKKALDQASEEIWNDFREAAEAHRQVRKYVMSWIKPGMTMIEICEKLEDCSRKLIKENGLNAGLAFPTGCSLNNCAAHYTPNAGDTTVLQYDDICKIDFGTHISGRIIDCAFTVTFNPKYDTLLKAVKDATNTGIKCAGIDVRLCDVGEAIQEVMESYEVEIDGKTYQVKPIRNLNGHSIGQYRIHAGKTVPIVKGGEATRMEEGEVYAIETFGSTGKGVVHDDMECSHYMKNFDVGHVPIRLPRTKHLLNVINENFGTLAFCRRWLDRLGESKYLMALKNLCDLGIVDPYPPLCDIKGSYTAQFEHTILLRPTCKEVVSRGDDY
In short: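 Human MetAP-2 cleaves Met-Arg-Ser; the freed methionine is oxidized by L-amino acid oxidase, and the resulting H2O2 drives peroxidase oxidation of dianisidine, read continuously at 450 nm. Activity is taken as the slope in the visually linear region.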

[1] = Shake flask solubility measurement; assay type: physicochemical; settings: shaken at 37° C. for 24 h; for solubility at 24 h: sodium phosphate/sodium chloride buffer, aqueous buffer, thermodynamic from solid
Description: Determination by Shake Flask Solubility Measurement
• Eluent A: 2 ml of diethylamine, for synthesis+1000 ml of methanol, LiChrosolv • Eluent B: 5 g of ammonium acetate, for analysis+5 ml of methanol, LiChrosolv+995 ml of ultrapure water Sample Solvent:
Buffer: 3.954 g of sodium dihydrogenphosphate monohydrate+6.024 g of sodium chloride+950 ml of ultrapure water the pH is adjusted using 0.1 M NaOH or 0.1 M HCl.
The samples are shaken at 37° C. and 450 rpm for 24 h.
After about 7 h, the pH of the samples is checked and adjusted if necessary. It is also checked whether the sample is still present in excess.
Just before the end of the 24 h shaking time, the samples are again checked for pH and a precipitate.

- melting point: 167 to 168 °C
- IC50 (MetAP-2): 10 to 1000 nM
Structure (SMILES): O=Cc1ccc(OC[C@H]2CCCN2c2ncnc3[nH]cnc23)c2ccccc12 [A2, 4-[(R)-1-(9H-purin-6-yl)pyrrolidin-2-ylmethoxy]naphthalene-1-carbaldehyde]

- melting point: 158 to 160 °C
Structure (SMILES): O=C(c1ccc(CCC2CCCN2c2ncnc3[nH]cnc23)c2ccccc12)N1CCOCC1 (racemic) [A6, morpholin-4-yl-(4-{2-[-1-(9H-purin-6-yl)pyrrolidin-2-yl]ethyl}naphthalen-1-yl)methanone]

- melting point: 143 to 144 °C
- IC50 (MetAP-2): 1000 to 10000 nM
Structure (SMILES): F[C@H]1C[C@H](COc2ccccc2Cl)N(c2ncnc3[nH]cnc23)C1 [A7, 6-[(2R,4S)-2-(2-chlorophenoxymethyl)-4-fluoropyrrolidin-1-yl]-9H-purine]

More lines, now with the values behind:

Structure (SMILES): Clc1cccc(OC[C@H]2CCCN2c2ncnc3[nH]cnc23)c1Cl [6-[(R)-2-(2,3-dichlorophenoxymethyl)pyrrolidin-yl]-9H-purine, reference compound]
- solubility ([1]; shake flask, buffer): < 1 µg/mL

Structure (SMILES): CNC(=O)/C=C1/CCc2c(OC[C@H]3CCCN3c3ncnc4[nH]cnc34)cccc2C1=O [N-methyl-2-[1-oxo-5-[(R)-1-(9H-purin-6-yl)pyrrolidin-2-ylmethoxy]-3,4-dihydro-1H-naphthalen-(2Z)-ylidene]acetamide]
- solubility at 24 h ([1]; shake flask, buffer): 29 µg/mL (≈ 67.1 µM)

Structure (SMILES): O=C(c1ccc(CC[C@H]2CCCN2c2ncnc3[nH]cnc23)c2ccccc12)N1CCOCC1 [Morpholin-4-yl-(4-{2-[(S)-1-(9H-purin-6-yl)pyrrolidin-2-yl]ethyl}naphthalen-1-yl)-methanone]
- solubility at 24 h ([1]; shake flask, buffer): 108 µg/mL (≈ 237 µM)

Structure (SMILES): c1ccc2c(OC[C@H]3CCCN3c3ncnc4[nH]cnc34)ccc(CNCCN3CCOCC3)c2c1 [(2-morpholin-4-ylethyl)-{4-[(R)-1-(9H-purin-6-yl)pyrrolidin-2-ylmethoxy]naphthalen-1-ylmethyl}amine]
- solubility at 24 h ([1]; buffer system at pH 7): 283 µg/mL (≈ 580 µM)
